Data: US20200188471A1 (GUILIN EIGHT PLUS ONE PHARMACEUTICAL CO., LTD., priority 2017, published 2020)
Like-named read-outs stand apart in the source and are kept apart here. No end group written: not given here.

T1: TNFR1 (Homo sapiens, UniProt P19438)
T1 sequence (P19438 30-455): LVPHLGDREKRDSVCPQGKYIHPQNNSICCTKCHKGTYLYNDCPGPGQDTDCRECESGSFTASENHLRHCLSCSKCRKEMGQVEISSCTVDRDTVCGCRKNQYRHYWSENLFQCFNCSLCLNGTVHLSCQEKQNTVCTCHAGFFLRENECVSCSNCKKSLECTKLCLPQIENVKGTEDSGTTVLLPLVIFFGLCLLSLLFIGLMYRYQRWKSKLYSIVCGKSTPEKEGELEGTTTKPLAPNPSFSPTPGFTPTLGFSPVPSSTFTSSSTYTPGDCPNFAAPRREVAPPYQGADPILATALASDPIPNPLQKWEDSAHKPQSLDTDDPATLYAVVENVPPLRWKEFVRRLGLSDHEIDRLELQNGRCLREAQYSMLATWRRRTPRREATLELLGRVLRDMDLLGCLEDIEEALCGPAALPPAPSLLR

T2: TNFR2 (Homo sapiens, UniProt P20333)
T2 sequence (P20333 23-461): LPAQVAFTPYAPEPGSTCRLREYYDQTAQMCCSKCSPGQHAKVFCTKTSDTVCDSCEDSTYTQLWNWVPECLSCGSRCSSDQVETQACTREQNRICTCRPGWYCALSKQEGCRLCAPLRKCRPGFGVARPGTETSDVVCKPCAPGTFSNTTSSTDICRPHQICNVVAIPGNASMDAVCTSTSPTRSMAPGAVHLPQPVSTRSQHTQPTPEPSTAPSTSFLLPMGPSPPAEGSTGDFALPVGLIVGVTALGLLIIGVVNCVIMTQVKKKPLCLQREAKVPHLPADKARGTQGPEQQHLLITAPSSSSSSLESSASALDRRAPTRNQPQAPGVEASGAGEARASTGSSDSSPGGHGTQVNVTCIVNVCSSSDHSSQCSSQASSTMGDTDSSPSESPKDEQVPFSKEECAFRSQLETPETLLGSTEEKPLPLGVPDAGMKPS

T3: interaction of TNFR1 and TNF-α (Homo sapiens, UniProt P19438)
T3 sequence (P19438 30-211 limits assumed): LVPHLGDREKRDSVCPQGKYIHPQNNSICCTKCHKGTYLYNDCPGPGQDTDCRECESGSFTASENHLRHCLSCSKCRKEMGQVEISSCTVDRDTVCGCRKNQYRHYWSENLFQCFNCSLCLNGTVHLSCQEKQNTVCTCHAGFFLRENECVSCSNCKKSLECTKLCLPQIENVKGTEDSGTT

T4: interaction of TNFR1 with TNF-α (Homo sapiens, UniProt P19438)
T4 sequence (P19438 30-211 limits assumed): T3 sequence (P19438 30-211 limits assumed)


Legend:
TNF-α [1] = assay: MST, fluorescently labelled TNF-α, TNFR1 titrated, no SN10
CIA mice [2] = assay: Micro-CT detection of bone destruction in CIA mice; assay type: in vivo, DBA/1 mice; details: for trabecular bone damage: Micro-CT of trabecular bone; for trabecular bone damage / degree of bone destruction, hind limbs: CIA mice; for trabecular bone damage / bone area/tissue volume (BS/TV) / bone mineral density (BMD) / bone surface area/bone volume (BS/BV) / bone volume/tissue volume (BV/TV) / number of trabeculae (Th.N) / trabecular model factor (Tb.pf) / trabecular separation (Tb.sp) / trabecular thickness (Tb.Th): vs model group; for degree of bone destruction, hind limbs / bone area/tissue volume (BS/TV) / bone mineral density (BMD) / bone surface area/bone volume (BS/BV) / bone volume/tissue volume (BV/TV) / number of trabeculae (Th.N) / trabecular model factor (Tb.pf) / trabecular separation (Tb.sp) / trabecular thickness (Tb.Th): Micro-CT; for degree of bone destruction, hind limbs: peptides 1600 ug/kg, infliximab 4 mg/kg i.p.; for bone area/tissue volume (BS/TV) / bone mineral density (BMD) / bone surface area/bone volume (BS/BV) / bone volume/tissue volume (BV/TV) / number of trabeculae (Th.N) / trabecular model factor (Tb.pf) / trabecular separation (Tb.sp) / trabecular thickness (Tb.Th): trabecular bone
CIA mice [3] = assay: Treg (Foxp3) and Th1, Th2, Th17 expression in T cells/splenocytes of CIA mice; assay type: in vivo, DBA/1 mice; details: vs model group; for expression level of Foxp3 in Treg cells: CIA mice; for expression level of IFN-γ (Th1) / expression level of IL-17 (Th17) / expression of IL-4 (Th2): splenocytes of CIA mice
Experimental: (§1) After 3 days of adaptation, DBA/1 mice were weighed and began to model. Six were randomly selected as the normal group, and the rest were the experimental group.
(§2) Day 0: Take bovine type IT collagen (4 mg/ml) and vortex and mix with an equal volume of CFA (4 mg/ml). It is better to not disperse on the water, and 100 ul/head is injected intradermally into the tail of the mouse.
(§3) Day 21: Take bovine type II collagen (4 mg/ml) and vortex mixed with an equal volume of IFA (4 mg/ml) until the droplets are not dispersed on the water. The mice are injected intradermally with 100 ul/head. On the 30th day, the model was successfully established. […] The drug was administered by injection once a day for 18 days.
(§4) One-Way ANOVA statistical analysis of the data using Graphpad Prism 5 was considered statistically significant at P<0.05. “*” indicates P<0.05, “**” indicates P<0.01, and “***” indicates P<0.001.
Studies have shown that Th17 cells secrete high levels of IL-17, which stimulates the secretion of matrix metalloproteinase-1, IL-1β by FLS. TNF-α and other co-inducing NF-κB receptor activator ligands are involved in the bone destruction of RA and inflammatory damage in tissues. The effect was observed by measuring the expression of helper T cells in splenocytes.

TNF-α [4] = biological target: T5, TNF-α (Homo sapiens, UniProt P01375); assay: MST interaction with TNF-α; assay type: binding; details: fluorescently labeled TNF-α
TNFR1 [5] = biological target: T1, TNFR1; details: read-out: binding capacity with TNFR1 (KD); SPR; from Hailong Jiang 2015 master dissertation of the inventors' group; cited from earlier work
TNFR2 [6] = biological target: T2, TNFR2; assay: MST interaction with TNFR2; assay type: binding
CIA mice [7] = assay: Arthritis index in type II bovine collagen-induced arthritis (CIA) mice; assay type: in vivo, DBA/1 mice; details: i.p. 1600 ug/kg once a day for 18 days, vs model group
Experimental: as §1, §2, §3, §4

TNF-α [8] = biological target: T5, TNF-α; assay: BIAcore (SPR) interaction with TNF-α; assay type: binding
CIA mice [9] = assay: Joint histology of CIA mice (HE staining, TNF-α immunohistochemistry, TRAP staining); assay type: in vivo, DBA/1 mice; details: for osteoclasts in joints / tartrate-resistant phosphatase (TRAP) in joints: TRAP staining; for osteoclasts in joints / tartrate-resistant phosphatase (TRAP) in joints / amount of expression of TNF-α in the joints: vs model group; for amount of expression of TNF-α in the joints: immunohistochemistry
[10] = biological target: T3, interaction of TNFR1 and TNF-α; assay: MST competitive inhibition between TNF-α and TNFR1; assay type: binding
Source text: Calculate the KD value by software. The changes of TNF-α saturation concentration, response amplitude and KD value before and after Hydrostatin-SN10 were compared.

[11] = biological target: T4, interaction of TNFR1 with TNF-α; assay: BIAcore (SPR) competitive inhibition between TNF-α and TNFR1; assay type: binding
CIA mice [12] = assay: Collagen-specific antibody and inflammatory factors in serum of CIA mice (ELISA, multi-factor kit); assay type: in vivo, DBA/1 mice; details: 1600 ug/kg i.p., vs model group
Experimental: as §1, §2, §3, §4
The ELISA kit and multi-factor kit were used to determine the collagen-specific antibody Ig G and pro-inflammatory factors IL-17, TNF-α, IL-6, IFN-γ and anti-inflammatory factor IL-10 in the serum of each group of mice. Compared with the normal control group, the collagen-specific antibody Ig G and the pro-inflammatory factors IL-17, TNF-α, IL-6, IFN-γ in the serum of the model group mice.

TNFR2 [13] = assay: MST, fluorescently labelled TNFR2, TNF-α titrated, no SN10
TNFR2 [14] = assay: MST, fluorescently labelled TNFR2, TNF-α titrated in the presence of 100 µM SN10; apparent KD
TNFR1 [15] = assay: MST, fluorescently labelled TNFR1, TNF-α titrated, no SN10
TNFR1 [16] = biological target: TNFR1
TNFR1 [17] = assay: MST, fluorescently labelled TNFR1 with an SN10 dilution series
TNFR1 [18] = biological target: TNFR1; remark: listed apart in the source
TNFR1 [19] = assay: BIAcore SPR, TNFR1 coated on CM-5 chip, peptide injected

Molecule | trabecular bone damage (CIA mice [2]) | degree of bone destruction, hind limbs (CIA mice [2]) | bone area/tissue volume (BS/TV) (CIA mice [2]) | bone mineral density (BMD) (CIA mice [2]) | bone surface area/bone volume (BS/BV) (CIA mice [2]) | bone volume/tissue volume (BV/TV) (CIA mice [2]) | number of trabeculae (Th.N) (CIA mice [2]) | trabecular model factor (Tb.pf) (CIA mice [2]) | trabecular separation (Tb.sp) (CIA mice [2]) | trabecular thickness (Tb.Th) (CIA mice [2]) | expression level of Foxp3 in Treg cells (CIA mice [3]) | expression level of IFN-γ (Th1) (CIA mice [3]) | expression level of IL-17 (Th17) (CIA mice [3]) | expression of IL-4 (Th2) (CIA mice [3]) | inflammatory cell infiltration (CIA mice [9]; HE staining of joint) | joint structure (CIA mice [9]; HE staining of joint) | osteoclasts in joints (CIA mice [9]) | tartrate-resistant phosphatase (TRAP) in joints (CIA mice [9]) | amount of expression of TNF-α in the joints (CIA mice [9]) | content of IFN-γ in serum (CIA mice [12]) | further results
TNFR1 (receptor) |  |  |  |  |  |  |  |  |  |  |  |  |  |  |  |  |  |  |  |  | Kd (TNF-α [1]): 0.00284 µM
H-DEQHLETELH [Hydrostatin-SN10] | significantly reduced bone damage | significantly reduced the degree of bone destruction | significantly up-regulated | significantly up-regulated | significant down | significantly up-regulated | significantly up-regulated | significant down | significant down | significantly up-regulated | significantly increased | significantly down-regulated | significantly down-regulated | up-regulated | more severe inflammatory cell infiltration | intact joint structure | reduced osteoclasts | reduced | reduced | significantly reduced | binding to TNF-α (TNF-α [4]): not binding; binding to TNF-α (TNF-α [4]; listed as SN10): no binding; Kd (TNFR1 [5]): ~2.8 µM; binding to TNFR2 (TNFR2 [6]; fluorescently labeled TNFR2): not binding; binding to TNFR2 (TNFR2 [6]; fluorescently labeled TNFR2, listed as SN10): no binding; arthritis index (CIA mice [7]): reduced; binding to TNF-α (TNF-α [8]): does not bind; binding to TNF-α (TNF-α [8]; listed as SN10): no binding; synovial hyperplasia (CIA mice [9]; HE staining of joint): severe synovial hyperplasia; competitive inhibition of the interaction of TNFR1 and TNF-α [10]: competitively inhibit; competitive inhibition of the interaction of TNFR1 with TNF-α [11]: competitively inhibits; content of IL-6 in serum (CIA mice [12]): significantly reduced; content of IL-17 in serum (CIA mice [12]): significantly reduced; content of TNF-α in serum (CIA mice [12]): significantly reduced; content of anti-inflammatory factor IL10 in serum (CIA mice [12]): Significantly increased; content of collagen-specific antibody Ig G in serum (CIA mice [12]): significantly reduced
infliximab: anti-TNF-α monoclonal antibody, positive drug [reference compound] | significantly reduced bone damage | significantly reduced the degree of bone destruction |  |  |  |  |  |  |  |  | significantly increased | significantly down-regulated | significantly down-regulated | up-regulated | weak inflammatory cell infiltration | complete joint structure |  |  |  |  | joint damage (CIA mice [9]; HE staining of joint): significantly weakened
PEG-SN10: Hydrostatin-SN10 modified by mPEG2000, carboxyl of mPEG2000 connected to free amino group of N-terminal aspartic acid (mPEG2000-DEQHLETELH) | significantly reduced bone damage | significantly reduced the degree of bone destruction | significantly up-regulated | significantly up-regulated | significant down | significantly up-regulated | significantly up-regulated | significant down | significant down | significantly up-regulated | significantly increased | significantly down-regulated | significantly down-regulated | up-regulated | weak inflammatory cell infiltration | complete joint structure | reduced osteoclasts | reduced | reduced | significantly reduced | joint damage (CIA mice [9]; HE staining of joint): significantly weakened; content of IL-6 in serum (CIA mice [12]): significantly reduced; content of IL-17 in serum (CIA mice [12]): significantly reduced; content of TNF-α in serum (CIA mice [12]): significantly reduced; content of anti-inflammatory factor IL10 in serum (CIA mice [12]): Significantly increased; content of collagen-specific antibody Ig G in serum (CIA mice [12]): significantly reduced
TNF-α (ligand) |  |  |  |  |  |  |  |  |  |  |  |  |  |  |  |  |  |  |  |  | Kd (TNFR2 [13]): 0.328 µM; Kd (TNFR2 [14]): 0.384 µM; Kd (TNFR1 [15]): 0.116 µM
DEQHLETELH (modifications not checked) [selective TNFR1 antagonist peptide Hydrostatin-SN10] |  |  |  |  |  |  |  |  |  |  |  |  |  |  |  |  |  |  |  |  | Kd (TNFR1 [16]): 2.77 µM; Kd (TNFR1 [17]): 2.8 µM; Kd (TNFR1 [18]): 2.83 µM; Kd (TNFR1 [19]): 2.8 µM
